Results reported in publication PMC3249837 (ACS chemical neuroscience, 2011).

System: PS1ΔE9
Type: binding
Conditions: competitor at 10 µM, probes at 200 nM

**Q.** `CC(C)CC[C@H](c1ccc(Cl)cc1)N1CC[C@@H](CC(=O)O)C[C@H]1c1ccc(C(F)(F)F)cc1` [Compound 1] was tested. Which “Competition of probe 4 and 5 labeling of PS1ΔE9 proteoliposomes” value did it give?
**A.** Its value is “blocked”.
